Several values for one entry are separate records, joined by “and”; a condition that tells them apart may be missing. Equal values may be shown once. Entries after “also recorded” stand apart in the source; their conditions may differ. Read-outs that look alike come from different tables or passages of the source. Marks after values point to notes of the source that are not given here.
What was measured:
methane emissions [1] = experiment: Preliminary field trial (Example 14): gas emission measurements in respiration chambers; type: in vivo, heifers
Procedure: The following preliminary field trial is an example of the methane inhibiting capabilities of the bolus invention in a live animal trial using recognised methane analysis techniques. The bolus used in the trial is outlined in Table 14 and the trial time schedule is outlined in Table 16.
Five different total bromoform doses across two different diets were tested, giving a total of ten treatments (Table 15). […] Within each dose group, half of the animals were fed baleage (baled cut and covered pasture), and the other half were adapted to a diet of fresh cut ryegrass (New Zealand fresh pasture). Boluses were washed prior to administration to remove any bromoform that may have accumulated on the outside of the bolus. The additional boluses were administered on day 69 per os. (oesophagus). The second measurement session began 10 days after said bolus administration, with animals entering the respiration chambers for a 48-hour period in groups of four.
(§1) Liveweights of the animals were recorded prior to the first bolus administration and following each measurement period. Gas production of methane, hydrogen, and carbon dioxide was assessed every 3 min over a 48-hour period in respiration chambers using a 4900C Continuous Emission Analyser. […] Rumen fluid contents were sampled prior to bolus administration and following measurement periods in the respiration chambers. Rumen samples were assessed for pH and short-chain fatty acids (SCFAs) content, and were stored for bromoform residue analysis later on. Blood samples were collected 16 days prior to bolus administration, and on days 34 and 94 following the measurement periods. Blood samples were assessed biochemical constitution and for liver enzymes.
Emissions of methane (CH4), hydrogen (H2) and carbon dioxide (CO2) were assessed in respiration chambers over 48 hour measurements and converted to a per-day-total. […] The data are combined for both feeds during measurement session 2 (cf. schedule table 16). P-values were calculated by single-factor ANOVA and differences were deemed particularly significant for p-value <0.05.

[2] = Preliminary field trial (Example 14): dry matter intake, liveweight, blood samples; type: in vivo, heifers
Procedure: as §1
The data are combined for both feed types during measurement session 2. […]

methane emissions [3] = experiment: Animal study (Example 3): gas emissions in respiration chambers; type: in vivo, dairy beef heifers
Procedure: An animal study was conducted to determine methane emissions from an animal implanted with a bolus of the disclosure. The experiment was designed as an unbalanced, completely randomized design with three treatments and three repeated measurements over time in three periods 8 to 12 weeks apart.
Nineteen dairy beef heifers (312±14 kg live weight), including three spare animals, were selected from a mob of 50 based on behaviour traits and liveweight from a research farm in the Manawatu, New Zealand. They were assigned to one of three treatments: a bolus containing no bromoform (CONTROL; n=4); a bolus releasing bromoform at a rate of about 300-400 mg/day (LOW, n=6); or a bolus releasing about 450-580 mg/day (HIGH, n=6). SmaXtec boluses were administered at the same time to monitor rumen temperature as an animal health monitor and to complement the weekly blood samples.
The heifers were transported from research farm to a testing centre for diet adaptation and gas measurements using respiration chambers. The heifers were adapted to the environment of the cattle yards and the fresh cut pasture for 7 days before receiving their allocated treatment bolus. Gas measurements started 13 days after the boluses were administrated. Each heifer was in the respiration chambers for 48 hours during the period of gas measurements, which took two weeks for four measurement groups. At the end of the measurements in respiration chambers, the animals were transported back to research farm.
Fermentation gases methane (CH4), carbon dioxide (CO2) and hydrogen (H2) were quantified in four open-circuit respiration chambers at the New Zealand Ruminant Methane Measurement Centre (AgResearch, Palmerston North, New Zealand). Each chamber is 15.4 m^3 (3.5 m long×2 m wide×2.2 m high) with an air flow rate of around 1.0 m^3/min, which was continuously monitored by measuring differential pressure using a Venturi flowmeter. Temperature inside respiration chambers was approximately 20° C. and the relative humidity was on average approximately 79%. All gases were measured at ˜2.8-min intervals using a 4900C Continuous Emission analyser (Servomex Group Ltd, East Sussex, UK) and daily production of each gas was calculated from the difference between concentration flowing in- and out of the chamber (Pinares-Patiño et al., 2012). Respiration chambers were opened twice daily (˜20 min each time) for cleaning, feeding, faecal sampling and feed refusal collection. No measurements were performed during the period when chambers were opened, and missing data were interpolated by taking the average of the last 12 values ([…]) before the doors were opened.
Data from the first period of gas measurements was analysed using the ‘predictmeans’ and ‘Ime4’ packages in the statistical software R 4.0.3 (R Core Team, 2020). Data for dry matter intake and gas emissions for each heifer were averaged across the two measurement days. Heifer served as the experimental unit. The mixed model included treatment as fixed effect and respiration chamber nested in measurement group as random effect.

[4] = after 48 hour with holding period; cited from earlier work
[5] = rats; cited from earlier work
[6] = mice; cited from earlier work
[7] = in vivo; cited from earlier work
[8] = 260 mg/d (HIGH + 156), period 2

With `BrC(Br)Br` [bromoform] the CO2 (methane emissions [1]; 156 mg/d (CON + 156), period 2) was 5666 ± 327 g/day, the H2 (methane emissions [1]; 156 mg/d (CON + 156), period 2) was 7.9 ± 3.5 g/day and the CH4 (methane emissions [1]; 156 mg/d (CON + 156), period 2, all animals, average ± standard error) was 48.7 ± 29.5 g/day. For the same compound, the “methane emissions of individual animals” value (methane emissions [1]; 156 mg/day dose group (CON+156)) was “about 0.2 g/d and ~0 g/d and 76 g/d”, the “methane emissions as % of the average of the untreated control group” value (methane emissions [1]; 156 mg/day, one animal with partial knockdown) was “approximately 50%” and the CH4 (methane emissions [1]; 182 mg/d (LOW + 156), period 2) was 18.6 ± 18.2 g/day. The CO2 (methane emissions [1]; 182 mg/d (LOW + 156), period 2) was 5589 ± 295 g/day, the H2 (methane emissions [1]; 182 mg/d (LOW + 156), period 2) was 13.7 ± 4.7 g/day and the “methane inhibition, animals responding” value (methane emissions [1]; 182 mg/d (LOW+156)) was “full methane inhibition was observed for three of the four treated animals; also recorded: Partial inhibition was observed for 1 out of 4 animals”. For the same compound, the “methane emission compared to control animals” value (methane emissions [1]; 182 mg/d, fourth animal) was “approximately 50%”, the CH4 (methane emissions [1]; 208 mg/d (MED + 156), period 2) was -0.3 ± 0.5 g/day and the CO2 (methane emissions [1]; 208 mg/d (MED + 156), period 2) was 5011 ± 377 g/day. The H2 (methane emissions [1]; 208 mg/d (MED + 156), period 2) was 17.2 ± 3.5 g/day, the “methane inhibition” value (methane emissions [1]; 208 mg/d or more) was “full methane inhibition” and the CH4 (methane emissions [1]; [8]) was -0.2 ± 0.3 g/day. For the same compound, the CO2 (methane emissions [1]; [8]) was 5159 ± 308 g/day, the H2 (methane emissions [1]; [8]) was 17 ± 3.4 g/day and the CH4 (methane emissions [1]; Baleage, 156 mg/d) was 59.1 g/day. It also gave a CO2 (methane emissions [1]; Baleage, 156 mg/d) of 5251 g/day, an H2 (methane emissions [1]; Baleage, 156 mg/d) of 7.4 g/day and a CH4 (methane emissions [1]; Baleage, 182 mg/d) of 0.9 g/day. It also gave a CO2 (methane emissions [1]; Baleage, 182 mg/d) of 5202 g/day, an H2 (methane emissions [1]; Baleage, 182 mg/d) of 13.3 g/day and a CH4 (methane emissions [1]; Baleage, 208 mg/d) of -1.0 g/day. It also gave a CO2 (methane emissions [1]; Baleage, 208 mg/d) of 4919 g/day, an H2 (methane emissions [1]; Baleage, 208 mg/d) of 19.9 g/day and a CH4 (methane emissions [1]; Baleage, 260 mg/d) of 0.3 g/day. The CO2 (methane emissions [1]; Baleage, 260 mg/d) was 4645 g/day, the H2 (methane emissions [1]; Baleage, 260 mg/d) was 12.7 g/day and the CH4 (methane emissions [1]; Pasture, 156 mg/d) was 38.2 g/day. For the same compound, the CO2 (methane emissions [1]; Pasture, 156 mg/d) was 6081 g/day, the H2 (methane emissions [1]; Pasture, 156 mg/d) was 8.4 g/day and the CH4 (methane emissions [1]; Pasture, 182 mg/d) was 36.2 g/day. The CO2 (methane emissions [1]; Pasture, 182 mg/d) was 5977 g/day, the H2 (methane emissions [1]; Pasture, 182 mg/d) was 14.1 g/day and the CH4 (methane emissions [1]; Pasture, 208 mg/d) was 0.3 g/day. The CO2 (methane emissions [1]; Pasture, 208 mg/d) was 5104 g/day, the H2 (methane emissions [1]; Pasture, 208 mg/d) was 14.4 g/day and the CH4 (methane emissions [1]; Pasture, 260 mg/d) was -0.7 g/day. The CO2 (methane emissions [1]; Pasture, 260 mg/d) was 5673 g/day, the H2 (methane emissions [1]; Pasture, 260 mg/d) was 21.3 g/day and the “effective minimal daily dose” value (methane emissions [1]; cattle, about 378 kg) was 0.28 to 0.4 mg/kg/day. The “minimum dose for an effective mitigation of methanogenesis” value (methane emissions [1]; cattle, about 378 kg) was 104 to 156 mg/day, the “methane inhibition” value (methane emissions [1]; dose range of 0-104 mg/day, chamber session 1 (data not shown)) was “no substantial methane inhibition” and the “methane inhibition, animals responding” value (methane emissions [1]; doses equal to and greater than 156 mg/d) was 15 out of 16 animals. It also gave an Average animal liveweight ([2]; 156 mg/d (CON + 156)) of 380 kg, an Average animal liveweight ([2]; 182 mg/d (LOW+156)) of 387 kg and an Average animal liveweight ([2]; 208 mg/d (MED + 156)) of 376 kg. The Average animal liveweight ([2]; 260 mg/d (HIGH + 156)) was 369 kg, the “Dry matter intake” value ([2]; all tested doses) was “not significantly different; also recorded: not significantly altered” and the “Animal liveweight, treated versus untreated control” value ([2]; in vivo) was “about the same”. The “blood data, treated versus untreated control” value ([2]; in vivo) was “No differences”, the “Average dry matter intake” value ([2]; treatment group CON + 156) was 5.54 kg/day and the “Average dry matter intake” value ([2]; treatment group HIGH) was 5.54 kg/day. For the same compound, the “Average dry matter intake” value ([2]; treatment group HIGH + 260) was 4.47 kg/day, the “Average dry matter intake” value ([2]; treatment group LOW + 182) was 5.15 kg/day and the “Average dry matter intake” value ([2]; treatment group LOW, both feeds, session 2) was 5.11 kg/day. For the same compound, the “Average dry matter intake” value ([2]; treatment group MED) was 5.72 kg/day, the “Average dry matter intake” value ([2]; treatment group MED + 208) was 3.86 kg/day and the H2 (methane emissions [3]; HIGH, 450 mg/d) was 20.08^a g/d. For the same compound, the “CH4 production (g/day) decrease compared with CONTROL” value (methane emissions [3]; HIGH, about 450-580 mg/day) was “more than 99%”, the “CH4 yield (g/kg dry matter intake) decrease compared with CONTROL” value (methane emissions [3]; HIGH, about 450-580 mg/day) was “more than 99%” and the H2 (methane emissions [3]; LOW, 300 mg/d) was 20.60^a g/d. For the same compound, the “CH4 production (g/day) decrease compared with CONTROL” value (methane emissions [3]; LOW, about 300-400 mg/day) was “more than 99%”, the “CH4 yield (g/kg dry matter intake) decrease compared with CONTROL” value (methane emissions [3]; LOW, about 300-400 mg/day) was “more than 99%” and the “residues in meat and tissue from slaughtered steers” value [4] was “no residues”. The half-life in animals [5] was 0.8 h, the half-life in animals [6] was 1.2 h and the level in milk [7] was “no significant increase”.

From US12115248B2, “Devices and methods for delivering methane inhibiting compounds to animals” (Ruminant Biotech Corp Limited, priority 2022, dated 2024)
